Assays:
NMDA NR1/NR2B receptor = NMDA NR1/NR2B receptor (Homo sapiens (Human), UniProt Q13224); test: In vitro NMDA NR1/NR2B cell assay (FLIPR, intracellular calcium induced by glycine/glutamate); format: cell-based; details: HEK293 NR1/NR2B, 20 μM glycine / 1 μM glutamate, read-out: In vitro NR2B affinity, IC50
Method: A human HEK293 cell line with tetracyclin-inducible expression of NMDA NR1/NR2B receptor was used as a test system for compound efficacy and potency. The cell line was purchased from ChanTest, Catalog #CT6121. Compound activity was determined by measuring the effect of compounds on intracellular calcium concentration induced by glycine/glutamate agonism in a FLIPRtetra system (Molecular Devices).
The cells were obtained as frozen cells in cryo-vials and stored until use at −150° C. Cells were grown in culture medium (DMEM/F12, 10% FBS, 5 μg/mL Blasticidin, 150 μg/mL Zeozin, 500 μg/mL Geneticin). […] For sub-culturing the cells were detached from flasks by Versene. For the assay, cells were detached, washed twice with induction medium (DMEM/F12 without glutamine, 10% FBS, 2 μg/mL Tetracycline, 2 mM Ketamine) and seeded to 384 well pure coat amine plates (Becton Dickinson, 50000 cells per well in 50 μl) 48 h prior to assay in induction medium.
The test compounds were dissolved in 100% DMSO at a concentration of 10 mM and in a first step diluted in DMSO to a concentration of 5 mM, followed by serial dilution steps in 100% DMSO. Dilution factor and number of dilution steps may vary according to needs. Typically 8 different concentrations by 1:5 dilutions were prepared in duplicate, further intermediate dilutions (1:37.5) of the substances were carried out with aqueous assay buffer (137 mM NaCl, 4 mM KCl, 1.8 mM CaCl2), 10 mM HEPES, 10 mM Glucose, pH 7.4) resulting in a compound concentration 3 times above the final test concentration and DMSO at 2.7% resulting in 0.9% final DMSO concentration in the assay.
At the assay day cells were washed 3× with assay buffer (as described above), 10 μL buffer remained in the wells after washing. 10 μL Ca kit loading buffer (AAT Bioquest; prepared from the kit containing the following components: Component A: Fluo-8 NW dissolved in 200 μL DMSO and 20 μl of this solution are mixed with 10 ml buffer prepared out of component B and C, Component B: 10× Pluronic® F127 Plus diluted 1:10 in component C, Component C: HHBS (Hanks with 20 mM Hepes) was added to the cells and the plates were incubated with lid for 60 minutes at room temperature. 20 μl assay buffer containing 60 μM glycine (20 μM final) and 3 μM glutamate (1 μM final) was added to column 1-23, column 24 got assay buffer without glycine/glutamate to serve as negative unstimulated control. Fluorescence (indicating the calcium influx as a result of the NR1/NR2B ion channel activation) was read on the FLIPRtetra device for 60 seconds to monitor the glutamate induced effects. After 2 minutes 20 μL of compound dilution prepared as described above or controls (row 1-22) in assay buffer were carefully added to the wells. […] The average of 2 measurements at 5 minutes and 5 min 10 seconds after compound addition is calculated and further used for IC50 calculations. Each assay microtiter compound dilution plate contained wells (in column 23 or 24) with DMSO controls instead of compound as controls for glycine/glutamate induced fluorescence (high controls) and wells with 1 μM of a reference NR2B NAM as low controls (Compound 22; reference: Layton, Mark E et al, ACS Chemical Neuroscience 2011, 2(7), 352-362).
The output file of the reader contains the well number and measured average fluorescence units. For data evaluation and calculation, the measurement of the low control was set as 0% control and the measurement of the high control was set as 100% control. The IC50 values were calculated using the standard 4 parameter logistic regression formula. Calculation: [y=(a−d)/(1+(x/c)^b)+d], a=low value, d=high value; x=conc M; c=IC50 M; b=slope.

Nav1.6 channel = Nav1.6 channel (Homo sapiens (Human), UniProt Q9UQD0); test: Nav1.6 inhibition, IonWorks Quattro electrophysiology; format: cell-based
Method: IonWorks Quattro electrophysiological platform
The compounds were prepared in DMSO at 300× the final assay concentrations of 1 and 5 μM.
The 300× DMSO stock solutions were transferred into assay plates where 2 μl per well of each 300× stock solution were placed. All assay plates were stored at −80° C. until the day of assay.
On the day of the assay, the appropriate assay plate was thawed at room temperature, centrifuged, and 198 μl of external recording solution was added and mixed thoroughly. This provided a 1:100 dilution. A further 1:3 dilution occurred upon addition to the cells in the IonWorks Quattro electrophysiological platform, giving a 1:300 dilution in total. On each assay plate, at least 8 wells were reserved for vehicle control (0.3% DMSO) and at least 8 wells for each positive control specific to the cell line tested. The positive controls were tested at a maximal blocking and an approximate IC50 concentration. As positive control Lidocaine at concentrations of 30 and 1000 μM was used.
The solutions for recording Nav1.6 currents were as follows:
Amphotericin B was used to obtain electrical access to the cell interior at a final concentration of 200 μg/ml in internal recording solution.
State-dependent inhibition: Sodium channels when held at depolarized potential or long test pulse, the channels open and inactivate and then stay inactivated until the membrane potential is stepped back to hyperpolarized potentials, when the inactivated channels recover from inactivation into closed state.
Cells were held at −120 mV. In order to completely inactivate the sodium channels (pulse 1), the cells were pulsed to +0 mV for 2500 ms and stepped back to −120 mV for 10 ms (to completely recover from inactivation, however channels that had drugs bound to them will not recover from inactivation) before stepping to +0 mV for 20 ms (pulse 2).
Assay Control Results Both the positive and vehicle control data associated with each cell line assayed are shown below as an example. The mean is shown for each positive and negative control as solid symbol with the total number of individual well replicates given next to the solid symbol. In addition, the individual data of each well are shown on the graph as open symbols so that the variation about the mean value can be readily assessed.
Shown below are the assay controls for the Nav1.6 IonWorks Quattro assay.
Tables 3 and 4 show the normalized percentage inhibition of Nav1.6 channel. […] (see also the figure Assay Control Results above).

NMDA NR1/NR2B receptor, sequence (Q13224 27-1484, other chains not shown): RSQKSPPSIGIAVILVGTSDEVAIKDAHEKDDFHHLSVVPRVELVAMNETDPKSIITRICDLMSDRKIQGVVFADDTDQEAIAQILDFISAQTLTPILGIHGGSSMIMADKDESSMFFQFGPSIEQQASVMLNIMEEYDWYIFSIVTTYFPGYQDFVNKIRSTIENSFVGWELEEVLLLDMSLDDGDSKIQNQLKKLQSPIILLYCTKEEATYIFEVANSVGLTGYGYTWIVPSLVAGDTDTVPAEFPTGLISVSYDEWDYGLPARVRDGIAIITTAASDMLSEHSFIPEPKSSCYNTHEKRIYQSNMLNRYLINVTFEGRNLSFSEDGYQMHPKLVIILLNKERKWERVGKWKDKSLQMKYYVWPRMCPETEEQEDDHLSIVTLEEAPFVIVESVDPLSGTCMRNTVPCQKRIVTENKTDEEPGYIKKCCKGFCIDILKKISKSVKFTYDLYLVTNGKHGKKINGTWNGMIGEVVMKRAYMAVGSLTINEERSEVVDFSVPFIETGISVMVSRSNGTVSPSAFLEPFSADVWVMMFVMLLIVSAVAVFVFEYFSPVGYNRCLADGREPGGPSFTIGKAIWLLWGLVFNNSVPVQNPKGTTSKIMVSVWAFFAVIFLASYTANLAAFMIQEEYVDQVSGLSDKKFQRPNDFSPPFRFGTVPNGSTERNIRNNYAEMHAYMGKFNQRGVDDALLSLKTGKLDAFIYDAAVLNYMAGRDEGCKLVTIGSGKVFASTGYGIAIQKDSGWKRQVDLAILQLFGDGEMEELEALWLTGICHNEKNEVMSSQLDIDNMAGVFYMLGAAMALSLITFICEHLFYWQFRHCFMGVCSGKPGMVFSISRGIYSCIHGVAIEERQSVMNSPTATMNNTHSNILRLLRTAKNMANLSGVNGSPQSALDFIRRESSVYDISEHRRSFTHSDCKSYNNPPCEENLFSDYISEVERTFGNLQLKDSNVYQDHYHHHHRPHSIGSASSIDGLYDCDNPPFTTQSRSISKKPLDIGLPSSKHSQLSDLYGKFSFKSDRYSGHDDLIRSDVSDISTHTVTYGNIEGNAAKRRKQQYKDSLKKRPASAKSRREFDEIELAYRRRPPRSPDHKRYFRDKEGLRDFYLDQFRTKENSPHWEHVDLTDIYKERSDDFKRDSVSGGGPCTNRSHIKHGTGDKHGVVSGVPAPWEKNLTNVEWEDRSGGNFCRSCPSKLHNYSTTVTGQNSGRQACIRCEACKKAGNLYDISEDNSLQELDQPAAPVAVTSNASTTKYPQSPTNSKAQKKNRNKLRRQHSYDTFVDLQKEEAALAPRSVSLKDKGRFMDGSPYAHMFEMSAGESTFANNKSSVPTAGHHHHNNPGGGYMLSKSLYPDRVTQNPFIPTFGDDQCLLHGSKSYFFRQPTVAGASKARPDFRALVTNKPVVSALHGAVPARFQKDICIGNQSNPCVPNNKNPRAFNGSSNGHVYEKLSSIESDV
Nav1.6 channel, sequence (Q9UQD0 whole entry): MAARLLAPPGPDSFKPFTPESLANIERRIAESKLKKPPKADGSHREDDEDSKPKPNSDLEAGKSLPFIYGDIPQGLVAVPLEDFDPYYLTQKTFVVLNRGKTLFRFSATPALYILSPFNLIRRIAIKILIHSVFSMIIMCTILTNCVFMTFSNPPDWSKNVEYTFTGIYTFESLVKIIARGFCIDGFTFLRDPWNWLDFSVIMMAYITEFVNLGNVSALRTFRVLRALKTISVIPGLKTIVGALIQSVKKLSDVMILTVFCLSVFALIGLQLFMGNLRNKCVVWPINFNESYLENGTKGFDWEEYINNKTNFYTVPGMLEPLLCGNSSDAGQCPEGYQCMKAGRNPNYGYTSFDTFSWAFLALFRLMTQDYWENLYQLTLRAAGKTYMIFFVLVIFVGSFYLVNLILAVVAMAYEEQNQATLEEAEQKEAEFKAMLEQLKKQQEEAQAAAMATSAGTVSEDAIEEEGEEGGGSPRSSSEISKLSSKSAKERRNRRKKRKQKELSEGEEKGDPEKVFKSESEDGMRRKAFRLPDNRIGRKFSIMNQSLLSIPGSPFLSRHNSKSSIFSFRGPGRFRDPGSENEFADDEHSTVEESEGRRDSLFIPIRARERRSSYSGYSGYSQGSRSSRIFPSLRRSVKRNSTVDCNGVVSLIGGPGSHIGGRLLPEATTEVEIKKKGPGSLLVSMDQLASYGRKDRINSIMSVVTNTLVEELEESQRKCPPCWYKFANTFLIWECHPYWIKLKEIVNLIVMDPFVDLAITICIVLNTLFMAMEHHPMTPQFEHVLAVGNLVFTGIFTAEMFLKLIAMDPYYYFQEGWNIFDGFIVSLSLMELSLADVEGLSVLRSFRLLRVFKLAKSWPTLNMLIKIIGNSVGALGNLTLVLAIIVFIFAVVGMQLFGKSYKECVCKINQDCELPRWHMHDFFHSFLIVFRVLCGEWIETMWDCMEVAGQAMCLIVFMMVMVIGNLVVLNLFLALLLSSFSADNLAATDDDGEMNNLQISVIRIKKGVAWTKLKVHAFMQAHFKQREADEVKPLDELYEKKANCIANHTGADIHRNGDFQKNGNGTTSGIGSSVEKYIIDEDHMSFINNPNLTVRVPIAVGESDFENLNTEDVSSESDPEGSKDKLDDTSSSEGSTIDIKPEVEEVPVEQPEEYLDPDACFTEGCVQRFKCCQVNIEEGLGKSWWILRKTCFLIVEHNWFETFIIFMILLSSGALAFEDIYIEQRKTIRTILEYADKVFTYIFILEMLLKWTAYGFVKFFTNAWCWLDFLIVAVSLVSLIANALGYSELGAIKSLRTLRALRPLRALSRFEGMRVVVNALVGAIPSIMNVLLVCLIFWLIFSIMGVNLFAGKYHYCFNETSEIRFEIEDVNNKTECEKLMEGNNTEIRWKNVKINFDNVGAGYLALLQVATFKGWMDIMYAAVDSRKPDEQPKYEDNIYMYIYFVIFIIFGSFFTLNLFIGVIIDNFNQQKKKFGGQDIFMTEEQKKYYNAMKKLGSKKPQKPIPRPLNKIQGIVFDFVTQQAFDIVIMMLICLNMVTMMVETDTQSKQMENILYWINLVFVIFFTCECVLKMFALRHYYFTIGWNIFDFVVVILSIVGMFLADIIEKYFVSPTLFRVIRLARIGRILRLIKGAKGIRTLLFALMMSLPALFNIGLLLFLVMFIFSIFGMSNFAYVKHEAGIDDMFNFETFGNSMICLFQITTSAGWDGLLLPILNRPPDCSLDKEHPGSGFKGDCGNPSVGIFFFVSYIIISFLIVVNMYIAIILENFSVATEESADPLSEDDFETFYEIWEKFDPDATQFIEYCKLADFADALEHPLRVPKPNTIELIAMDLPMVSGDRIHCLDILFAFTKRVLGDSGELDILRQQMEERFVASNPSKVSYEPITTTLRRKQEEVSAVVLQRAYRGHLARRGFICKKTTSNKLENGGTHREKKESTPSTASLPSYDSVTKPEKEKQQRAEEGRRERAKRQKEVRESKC

Row | SMILES | IC50 (NMDA NR1/NR2B receptor) [µM] | further results
1 | CNC(=O)[C@@H]1CN(Cc2cnc(Oc3ccccc3)cn2)CCO1 [Example 34] | 0.644 | 
2 | CNC(=O)[C@@H]1CN(Cc2cnc(Oc3c(F)cccc3F)cn2)CCO1 [Example 35] | 0.197 | 
3 | CNC(=O)[C@@H]1CN(Cc2cnc(Oc3c(C)cccc3F)cn2)CCO1 [Example 36] | 0.542 | 
4 | CCN(CC)CC(=O)Nc1c(C)cccc1C [Lidocaine, reference compound] |  | inhibition at 1000 µM (Nav1.6 channel; read-out: maximum inhibition at P1 (not normalized)): 46.4 to 47.2%; inhibition of evoked Nav1.6 currents (Nav1.6 channel; reference compound, FIG. 2): inhibited evoked currents in a concentration and use dependent manner
5 | CCCCNc1ccc(C(=O)OCCN(C)C)cc1 [Tetracaine, reference compound] |  | state-dependent inhibition of Nav1.6 (Nav1.6 channel; FIG. 1): much stronger at depolarized potentials than at hyperpolarized potential

Source: patent publication US11166958B2, “4-pyrazin-2-ylmethyl-morpholine derivatives and the use thereof as medicament” (Boehringer Ingelheim International GmbH, priority 2018, dated 2021)
